{"source": "paper PMC9779727", "about": "“Identification of Novel Artemisinin Hybrids Induce Apoptosis and Ferroptosis in MCF-7 Cells” (International Journal of Molecular Sciences, 2022)", "key": {"[1]": {"test_system": "Bax", "assay": "Western blotting, Bax expression", "type": "cell-based, human", "settings": "MCF-7, 0, 2.5, 5 and 10 μM, 48 h, GAPDH internal control", "protocol": "Based on the JC-1 staining results, we further analyzed the expression of proteins related to apoptosis using a Western blotting assay with GAPDH as an internal control. […] Then, an excess of cytochrome C can enhance caspase-3 activation to stimulate apoptosis.\n(§1) MCF-7 cells were seeded at a density of 4 × 10^5 cells per well and treated with various concentrations of compound A8 (0, 2.5, 5 and 10 μM) for 48 h. After this, cells were collected and washed twice with ice-cold DPBS. The pellets were resuspended in a total protein extraction buffer (20 mM HEPES, 350 mM NaCl, 20% glycerol, 1% NP-40, 1 mM MgCl2, 0.5 mM EDTA, 0.1 mM EGTA, 0.1 mM DTT, 0.1 mM PMSF) containing a protease inhibitor cocktail and incubated on ice for 30 min with intermittent mixing. The protein concentration was measured using the Bradford reagent (Bio-Rad Laboratories Inc., Hercules, CA, USA). An equal amount (20 μg) of protein was loaded on 10% polyacrylamide gels and transferred to a nitrocellulose membrane. After blocking with 5% skimmed milk, the membrane was incubated at 4 °C overnight with specific primary antibodies. The membrane was washed and incubated at room temperature for 1 h with secondary antibodies conjugated with horseradish peroxidase (HRP). Finally, the immunoblot was developed for visualization using a chemiluminescence kit. […]"}, "[2]": {"test_system": "GPX4", "assay": "Western blotting, GPX4 expression", "type": "cell-based, human", "settings": "MCF-7, 0, 2.5, 5 and 10 μM, 48 h", "protocol": "We examined the effect of A8 on the expression of GPX4 as well, which is vital in preventing ferroptosis. […] Thus, we concluded that A8 induced the accumulation of ROS and lipid peroxidation and suppressed GSH levels and the expression of GPX4, thereby leading to the induction of ferroptosis.\nas §1"}}, "data": [{"molecule": "CC1CCC2C(C)C(OC(=O)CCC(=O)NCc3nnc(Nc4ccc(F)cc4F)o3)OC3OC4(C)CCC1C32OO4", "note": "(centres unmarked) [A8]", "values": [{"measurement": "expression of Bax (in words)", "setting": "[1]", "value": "upregulated"}, {"measurement": "GPX4 expression (in words)", "setting": "[2]", "value": "dose-dependent inhibition of GPX4 expression"}]}]}
